Reference: patent publication US9249125B2, “Pyrazole derivatives as p38 MAP inhibitors” (RESPIVERT LIMITED, priority 2012, dated 2016)

How the values were obtained:
Syk = Syk (Homo sapiens (Human), UniProt P43405); test: Syk enzyme inhibition (FRET, Z-LYTE); type: biochemical
How it was run: (§1)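 Z-LYTE FRET kinase assay: enzyme (3000 or 2000 ng/mL stock, respectively) preincubated 2 h at RT with compound (4–0.004 μg/mL stocks), then FRET peptide plus ATP (800 μM stock for c-Src, 60 μM for Syk) added for 1 h. Protease development 1 h; phosphorylation from coumarin/fluorescein emission ratio.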

d-U937 cells = test: Cell viability: MTT assay; type: cell-based, human; conditions: 1 μg/mL
How it was run: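 MTT read-out (1 h, absorbance 550 nm) on d-U937 cells after pre-incubation with 1 or 10 μg/mL compound under two regimes: 4 h, 5% FCS, or 24 h, 10% FCS RPMI1640. Values are percent loss of viability relative to vehicle (0.5% DMSO), so increases are reported as negative.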

p38 MAPKα = p38 MAPKα (Homo sapiens (Human), UniProt Q16539); test: p38 MAPKα enzyme inhibition (FRET, Z-LYTE); type: biochemical
Sequence of p38 MAPKα (Q16539 whole entry): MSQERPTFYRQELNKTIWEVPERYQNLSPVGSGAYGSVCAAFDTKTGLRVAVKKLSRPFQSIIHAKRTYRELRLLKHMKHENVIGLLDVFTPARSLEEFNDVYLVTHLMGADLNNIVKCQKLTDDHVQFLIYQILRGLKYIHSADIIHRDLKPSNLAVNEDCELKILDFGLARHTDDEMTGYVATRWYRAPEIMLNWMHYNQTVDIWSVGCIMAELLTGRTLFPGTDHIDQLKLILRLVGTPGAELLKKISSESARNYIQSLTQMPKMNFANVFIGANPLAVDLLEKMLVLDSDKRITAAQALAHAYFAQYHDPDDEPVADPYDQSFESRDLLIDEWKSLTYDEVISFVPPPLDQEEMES

[1] = test system: LPS-induced IL-8 release in d-U937 cells; test: LPS-induced IL-8 release in d-U937 cells; type: cell-based; conditions: Homo sapiens, dU937, read-out: LPS Induced Release of Cytokine in d-937 Cells IL-8 IC50
How it was run: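 Sandwich ELISA of culture supernatant gives TNFα and IL-8 levels after a 4 hr challenge with LPS (0.1 μg/mL, E. coli O111:B4). Before stimulation, macrophage-like U937 cells, obtained by 48–72 hr in PMA at 100 ng/mL, sit with compound for 2 hr. Relative EC50 is derived from concentration-response data.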

GSK3α = GSK3α (Homo sapiens (Human), UniProt P49840); test: GSK 3α enzyme inhibition (FRET, Z-LYTE); type: biochemical
Sequence of GSK3α (P49840 whole entry): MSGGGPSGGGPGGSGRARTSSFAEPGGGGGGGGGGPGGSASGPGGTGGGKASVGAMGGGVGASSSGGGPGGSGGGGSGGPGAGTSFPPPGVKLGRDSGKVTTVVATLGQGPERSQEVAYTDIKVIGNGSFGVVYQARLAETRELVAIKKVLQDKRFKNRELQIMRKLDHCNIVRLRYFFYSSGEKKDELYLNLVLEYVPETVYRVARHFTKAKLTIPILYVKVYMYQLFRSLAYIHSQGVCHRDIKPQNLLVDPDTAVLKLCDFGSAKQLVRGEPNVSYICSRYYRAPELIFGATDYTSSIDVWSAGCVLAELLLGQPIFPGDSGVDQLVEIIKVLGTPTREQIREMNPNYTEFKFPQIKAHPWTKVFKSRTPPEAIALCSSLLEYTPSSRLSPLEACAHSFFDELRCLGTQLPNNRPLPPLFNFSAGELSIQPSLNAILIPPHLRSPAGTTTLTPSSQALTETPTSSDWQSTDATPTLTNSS
How it was run: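 Phosphorylation was read as the donor (coumarin) to acceptor (fluorescein) ratio after a 1 hr protease step destroying non-phosphorylated peptide. Before this, compound (4–0.004 μg/mL stocks) sat 2 hr at RT with GSK3α (500 ng/mL stock), followed by 1 hr kinase reaction with 8 μM peptide and 40 μM ATP stocks.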

cSrc = cSrc (Homo sapiens (Human), UniProt P12931); test: c-Src enzyme inhibition (FRET, Z-LYTE); type: biochemical
Sequence of cSrc (P12931 whole entry, looked up): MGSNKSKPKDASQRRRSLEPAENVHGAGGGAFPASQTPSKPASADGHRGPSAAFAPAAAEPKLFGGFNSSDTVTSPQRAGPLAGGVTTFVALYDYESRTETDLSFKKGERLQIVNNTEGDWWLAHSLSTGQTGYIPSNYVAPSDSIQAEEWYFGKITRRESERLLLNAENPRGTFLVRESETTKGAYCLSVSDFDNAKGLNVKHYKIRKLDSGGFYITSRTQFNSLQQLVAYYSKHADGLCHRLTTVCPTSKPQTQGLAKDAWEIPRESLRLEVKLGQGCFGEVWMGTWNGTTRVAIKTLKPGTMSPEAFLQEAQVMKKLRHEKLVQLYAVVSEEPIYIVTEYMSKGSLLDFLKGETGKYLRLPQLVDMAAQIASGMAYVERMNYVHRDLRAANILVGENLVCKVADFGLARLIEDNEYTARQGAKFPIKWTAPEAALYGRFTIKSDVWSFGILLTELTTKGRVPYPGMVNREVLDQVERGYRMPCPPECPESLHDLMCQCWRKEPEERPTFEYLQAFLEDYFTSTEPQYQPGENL
How it was run: as §1

[2] = test system: LPS-induced TNFα release in d-U937 cells; test: LPS-induced TNFα release in d-U937 cells; type: cell-based; conditions: Homo sapiens, dU937, relative to 10 μg/mL BIRB796, read-out: LPS Induced Release of Cytokine in d-937 Cells TNFα REC50
How it was run: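 First, U937 monocytes undergo PMA treatment (100 ng/mL) for 48 to 72 hr to become macrophage-type. Next, compound at final concentrations is added for 2 hr, followed by LPS at 0.1 μg/mL for 4 hr. Finally, cytokines in the supernatant are quantified by ELISA against vehicle-treated cells.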

[3] = test system: Poly I:C-induced ICAM-1 expression in BEAS2B cells; test: Poly I:C-induced ICAM-1 expression in BEAS2B cells; type: cell-based; conditions: Homo sapiens, BEAS-2B, read-out: Poly IC induced ICAM1 in BEAS2B IC50
How it was run: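 Cell-based ELISA read at 450 nm minus 655 nm, divided by crystal violet OD595 to normalize for cell number, gave ICAM-1 levels. Readout was taken 18 hr after poly I:C (1 μg/mL, Oligofectamine) transfection of human bronchial BEAS2B cells pretreated 2 hr with test compound.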

| SMILES | IC50 (Syk) | IC50 (p38 MAPKα) | IC50 [1] | IC50 (GSK3α) | IC50 (cSrc) | EC50 [2] | MTT Assay Cell viability at time point in d-U937 cells 4 h (d-U937 cells) | MTT Assay Cell viability at time point in d-U937 cells 24 h (d-U937 cells) | IC50 [3] |
| --- | --- | --- | --- | --- | --- | --- | --- | --- | --- |
| CC(C)(C)c1cc(NC(=O)Nc2ccc(Oc3ccnc(Nc4ccc5c(c4)NC(=O)C5(C)C)n3)c3ccccc23)n(-c2ccc(OCCN3CCOCC3)cc2)n1 [Example 62, 1-(3-(tert-butyl)-1-(4-(2-morpholinoethoxy)phenyl)-1H-pyrazol-5-yl)-3-(4-((2-((3,3-dimethyl-2-oxoindolin-6-yl)amino)pyrimidin-4-yl)oxy)naphthalen-1-yl)urea] | 9 nM | 98 nM | 22.7 nM | 1700 nM | 5 nM | 7.3 nM | −ve (−ve and +ve indicate that the value is below and above respectively, the no significant effect threshold, defined as 30% inhibition at 1 μg/mL at the time point indicated.) | −ve (−ve and +ve indicate that the value is below and above respectively, the no significant effect threshold, defined as 30% inhibition at 1 μg/mL at the time point indicated.) | 11.6 nM |
| CC(C)(C)c1cc(NC(=O)Nc2ccc(Oc3ccnc(Nc4ccc5c(c4)C(=O)NC5)n3)c3ccccc23)n(-c2ccc(OCCN3CCOCC3)cc2)n1 [Example 63, 1-(3-(tert-butyl)-1-(4-(2-morpholinoethoxy)phenyl)-1H-pyrazol-5-yl)-3-(4-((2-((3-oxoisoindolin-5-yl)amino)pyrimidin-4-yl)oxy)naphthalen-1-yl)urea] | 10 nM | 14 nM | 2.8 nM | 184 nM | < 1 nM | 1.5 nM | −ve (−ve and +ve indicate that the value is below and above respectively, the no significant effect threshold, defined as 30% inhibition at 1 μg/mL at the time point indicated.) | −ve (−ve and +ve indicate that the value is below and above respectively, the no significant effect threshold, defined as 30% inhibition at 1 μg/mL at the time point indicated.) | 0.3 nM |
| CC(C)(C)c1cc(NC(=O)Nc2ccc(Oc3ccnc(Nc4ccc5c(c4)CS(=O)(=O)C5)n3)c3ccccc23)n(-c2ccc(OCCN3CCOCC3)cc2)n1 [Example 64, 1-(3-(tert-butyl)-1-(4-(2-morpholinoethoxy)phenyl)-1H-pyrazol-5-yl)-3-(4-((2-((2,2-dioxido-1,3-dihydrobenzo[c]thiophen-5-yl)amino)pyrimidin-4-yl)oxy)naphthalen-1-yl)urea] | 20 nM | 67 nM | 1.3 nM | 437 nM | 3 nM | 1.1 nM | −ve (−ve and +ve indicate that the value is below and above respectively, the no significant effect threshold, defined as 30% inhibition at 1 μg/mL at the time point indicated.) | −ve (−ve and +ve indicate that the value is below and above respectively, the no significant effect threshold, defined as 30% inhibition at 1 μg/mL at the time point indicated.) | 0.01 nM |
| CC(C)(C)c1cc(NC(=O)Nc2ccc(Oc3ccnc(Nc4ccc5c(c4)OCO5)n3)c3ccccc23)n(-c2ccc(OCCN3CCOCC3)cc2)n1 [Example 65, 1-(4-((2-(benzo[d][1,3]dioxol-5-ylamino)pyrimidin-4-yl)oxy)naphthalen-1-yl)-3-(3-(tert-butyl)-1-(4-(2-morpholinoethoxy)phenyl)-1H-pyrazol-5-yl)urea] | 141 nM | 239 nM | 20.9 nM | 2840 nM | 23 nM | 5.3 nM | −ve (−ve and +ve indicate that the value is below and above respectively, the no significant effect threshold, defined as 30% inhibition at 1 μg/mL at the time point indicated.) | −ve (−ve and +ve indicate that the value is below and above respectively, the no significant effect threshold, defined as 30% inhibition at 1 μg/mL at the time point indicated.) | 6.7 nM |

The next lines start with results.

| IC50 (Syk) | IC50 (p38 MAPKα) | IC50 [1] | IC50 (GSK3α) | IC50 (cSrc) | EC50 [2] | SMILES | MTT Assay Cell viability at time point in d-U937 cells 4 h (d-U937 cells) | MTT Assay Cell viability at time point in d-U937 cells 24 h (d-U937 cells) | IC50 [3] |
| --- | --- | --- | --- | --- | --- | --- | --- | --- | --- |
| 19 nM | 335 nM | 16 nM | 2850 nM | 15 nM | 6.4 nM | Cc1cc2cc(Nc3nccc(Oc4ccc(NC(=O)Nc5cc(C(C)(C)C)nn5-c5ccc(OCCN6CCOCC6)cc5)c5ccccc45)n3)ccc2[nH]1 [Example 66, 1-(3-(tert-butyl)-1-(4-(2-morpholinoethoxy)phenyl)-1H-pyrazol-5-yl)-3-(4-((2-((2-methyl-1H-indol-5-yl)amino)pyrimidin-4-yl)oxy)naphthalen-1-yl)urea] | −ve (−ve and +ve indicate that the value is below and above respectively, the no significant effect threshold, defined as 30% inhibition at 1 μg/mL at the time point indicated.) | −ve (−ve and +ve indicate that the value is below and above respectively, the no significant effect threshold, defined as 30% inhibition at 1 μg/mL at the time point indicated.) | 6.9 nM |
| < 1 nM | 5 nM | 0.3 nM | 3040 nM | < 1 nM | 1.5 nM | CC(C)(C)c1cc(NC(=O)Nc2ccc(Oc3ccnc(Nc4ccc5[nH]ncc5c4)c3)c3ccccc23)n(-c2ccc(OCCN3CCOCC3)cc2)n1 [Example 67] | −ve (−ve and +ve indicate that the value is below and above respectively, the no significant effect threshold, defined as 30% inhibition at 1 μg/mL at the time point indicated.) | −ve (−ve and +ve indicate that the value is below and above respectively, the no significant effect threshold, defined as 30% inhibition at 1 μg/mL at the time point indicated.) | 2.5 nM |
| 5 nM | 18 nM | 3.4 nM | 1280 nM | 3 nM | 0.4 nM | CC(C)c1cc(NC(=O)Nc2ccc(Oc3ccnc(Nc4ccc5[nH]ncc5c4)n3)c3ccccc23)n(-c2ccc(OCCN3CCOCC3)cc2)n1 [Example 69, 1-(4-((2-((1H-indazol-5-yl)amino)pyrimidin-4-yl)oxy)naphthalen-1-yl)-3-(3-isopropyl-1-(4-(2-morpholinoethoxy)phenyl)-1H-pyrazol-5-yl)urea] | −ve (−ve and +ve indicate that the value is below and above respectively, the no significant effect threshold, defined as 30% inhibition at 1 μg/mL at the time point indicated.) | −ve (−ve and +ve indicate that the value is below and above respectively, the no significant effect threshold, defined as 30% inhibition at 1 μg/mL at the time point indicated.) | 8.1 nM |
| 9 nM | 269 nM | > 1330 nM | 3440 nM | 12 nM | 11.1 nM | Cc1n[nH]c2cc(Nc3nccc(Oc4ccc(NC(=O)Nc5cc(C(C)(C)C)nn5-c5ccc(OCCN6CCOCC6)cc5)c5ccccc45)n3)ccc12 [Example 71, 1-(3-(tert-butyl)-1-(4-(2-morpholinoethoxy)phenyl)-1H-pyrazol-5-yl)-3-(4-((2-((3-methyl-1H-indazol-6-yl)amino)pyrimidin-4-yl)oxy)naphthalen-1-yl)urea] | −ve (−ve and +ve indicate that the value is below and above respectively, the no significant effect threshold, defined as 30% inhibition at 1 μg/mL at the time point indicated.) | −ve (−ve and +ve indicate that the value is below and above respectively, the no significant effect threshold, defined as 30% inhibition at 1 μg/mL at the time point indicated.) | 2.2 nM |
| 3 nM | 13 nM | 1.7 nM | 2290 nM | 2 nM | 1.6 nM | Cc1n[nH]c2ccc(Nc3nccc(Oc4ccc(NC(=O)Nc5cc(C(C)(C)C)nn5-c5ccc(OCCN6CCOCC6)cc5)c5ccccc45)n3)cc12 [Example 72] | −ve (−ve and +ve indicate that the value is below and above respectively, the no significant effect threshold, defined as 30% inhibition at 1 μg/mL at the time point indicated.) | −ve (−ve and +ve indicate that the value is below and above respectively, the no significant effect threshold, defined as 30% inhibition at 1 μg/mL at the time point indicated.) | 165 nM |
